# “Also recorded” adds a separate entry of the source.
# Assays:
# Female B6C3F1 mice = assay: Endotoxemia: hypothermia and survival after LPS; format: in vivo
# Protocol: Female B6C3F1 mice weighing approximately 24 g were dosed with pentamidine (15 mg/kg.; i.v.) at both 24 hours and 1 hour prior to LPS administration (50 mg/kg; i.p.). Temperature response indices (TRI) were determined for the period between time zero and +12 hours in groups of 5 mice. […] Animals used for body temperature measurements were treated identically and on the same day as those animals for which survival was measured, although the survival of these animals is not included in the Table below. Survival data shown in Table 3 is following 24 hours of observation.
# human IL-1 = assay: IL-1 secretion by human alveolar macrophages (enzyme linked immunosorbant assay); format: cell-based; conditions: 10^-5 M
# Protocol: Dose response studies were performed to determine the molar concentration at which pentamidine reduced viability in normal rat macrophages. […] This blockage was shown using an enzyme linked immunosorbant assay with specific antibody to IL-1β.
# Four normal healthy human volunteers were lavaged and their pulmonary macrophages cultured in vitro in the presence of 10^-5 M pentamidine and the IL-1 inducer, lipopolysaccharide. Following 24 hours of incubation, the supernatant fluid was collected and stored at -20° C. for IL-1 determination using an enzyme linked immunosorbant assay with specific antibody to human IL-1.
# tumor necrosis factor = assay: Tumor necrosis factor secretion by rat macrophages; format: cell-based; conditions: pentamidine 10^-5 M, rat macrophages (control 82 units/ml)
# Protocol: It has also been observed that pentamidine (10^-5 M) blocks the secretion of tumor necrosis factor in rat macrophages (42 units/ml - pentamidine vs. 82 units/ml - control), as well as tumor necrosis factor and IL-6 in human macrophages, where at a concentration of 10^-5 M pentamidine, tumor necrosis factor and IL-6 secretion are suppressed >50%. These additional cytokines are also very influential mediators in inflammatory diseases.
# (§1) In vitro studies were performed by taking alveolar macrophages from normal healthy rat lungs and culturing them in the presence of an imidazoline with the inducer lipopolysaccharide for 24 hours. The standard bioassay for IL-1 was performed (see above).
# [1] = tested on: Pulmonary alveolar macrophages; assay: Phagocytosis by pulmonary alveolar macrophages (Fluoresbrite beads, flow cytometry); format: cell-based, rat
# Protocol: One ml aliquots were added to sterile teflon vials (Nalgene) along with pentamidine or dexamethasone (Sigma) as indicated, and incubated for 4 hours at 37° C., 5% CO2. Fluoresbrite carboxylate beads, 1.73 μm (Polysciences) were used to achieve a 100:1 bead to cell ratio and the suspension was incubated for 45 minutes at 37° C., 5% CO2 with gentle agitation. Cell suspensions were then layered over 3 mls. of RPMI/FCS+0.3% BSA, and cells pelleted at 150 xg for 10 minutes. Supernates were discarded and cells resuspended in 1 ml of RPMI/FCS for analysis via flow cytometry. The data presented above is the mean of the percentage of cells taking up one or more beads of triplicate cultures.
# IL-1α mRNA = assay: Northern blot analysis of IL-1α mRNA expression; format: cell-based, rat; conditions: 10 μM pentamidine, LPS, 3 h, FIG. 2
# Protocol: Specific transcription of IL-1α mRNA synthesis was assessed by incubating cells with and without 10 μM pentamidine or 1 μM of the corticosteroid, dexamethasone in the presence or absence of lipopolysaccharide (LPS). At the end of a 3 hour incubation period, the cells were lysed and the total cellular RNA was collected, blotted onto a nitrocellulose filter and probed with ^32 P-labeled IL-1α cDNA. […] In contrast, mRNA for IL-1α was not seen in dexamethasone treated cells.
# For determination of IL-1 mRNA levels, cells (4×10^6) were cultured with or without pentamidine (10 μM) or dexamethasone (1 μM) in media with 10% FCS in the presence or absence of LPS (1 μg/ml) for 3 hours. Total cellular RNA was isolated by quanidinium-thiocyanate phenolchloroform extraction (P. Chomczynski et al., Anal. Bioch. 162, 156 (1987)). RNA (10 μg) was electrophoresed in 1.2% agarose gels as previously described (H. Leharch et al., Biochemistry 4743 (1977)). […] Hybridizing species were detected by autoradiography at -70° C., using Kodak XAR film with an intensifying screen. The total RNA levels per lane on the gel was assessed by monitoring 28S and 18S, and expression of α-tubulin mRNA. Accumulation of α-tubulin mRNA was determined by probing the same blot with ^32 P labeled 30 mer oligonucleotide (Du Pont).
# IL-1 = IL-1 release from alveolar macrophages (thymocyte co-stimulation bioassay); format: cell-based, rat; conditions: 24 h after LPS (5 ng/ml), FIG. 1a
# Protocol: Pulmonary alveolar macrophages were collected by lavaging the lungs as previously described (D. B. Warheit et al., Am. Rev. Resp. Dis. 134, 128 (1986)). Once washed and resuspended, the macrophages were allowed to adhere to plastic plates in serum free RPMI 1640 containing 25 mM Hepes, 2 mM L-glutamine, 50 μg/ml gentamicin and streptomycin (media). Following adherence for 1 hour at 37° C. in 5% CO2, the plates were washed once with warm media to remove nonadherent cells, cells were resuspended in media with 10% FCS and treated with or without pentamidine at the indicated concentration and LPS (5 ng/ml) for 24 hours). IL-1 activity was assayed using a thymocyte co-stimulation assay (S. B. Mizel in Methods in Macrophage Biology, Editors, Herscowitz and Holden (1981)). Single cell thymocyte suspension from B6C3F1 mice (female, 5-9 weeks old) at a concentration of 2.0×10^7 /ml in media containing 10% FCS, and 2.5×10^-5 M 2-β mercaptoethanol were added in 50 μl aliquots to each well of flat bottom microtiter plates along with 50 μl of PHA at 2.5 μg/ml. Serial dilution of supernatants or cells were made in media with 10% FCS and added in 100 μl aliquots. IL-1 activity was measured by quantifying the uptake of 3Hthymidine during the last 6 hours of a 72 hour culture at 37° C. and 5% CO2. Cells were harvested onto glass fiber filters and filter associated radioactivity counted in a scintillation counter.
# as §1
smiles,measurement,setting,value
"N=C(N)c1ccc(OCCCCCOc2ccc(C(=N)N)cc2)cc1 [Pentamidine, 1,5-bis(4-amidinophenoxy)pentane]",Temperature response index (TRI),"Female B6C3F1 mice; 15 mg/kg i.v. 24 h and 1 h prior to LPS 50 mg/kg i.p. (LPS alone -13.3), P < 0.01",-8.3 Δ°C
same,Survival,"Female B6C3F1 mice; 15 mg/kg i.v. + LPS, 24 hours of observation (LPS alone 0/10), P < 0.01",10/10
same,Mean rectal temperature at 12 hours (Tr12hr),"Female B6C3F1 mice; 15 mg/kg i.v. + LPS, ± SE (LPS alone 25.3 ± 0.5), P < 0.01",29.0 ± 2.2 °C
same,Mean rectal temperature at time zero (Tr0),"Female B6C3F1 mice; 15 mg/kg i.v. + LPS, ± SE (LPS alone 38.6 ± 0.4)",37.3 ± 0.4 °C
same,Temperature response index (TRI),"Female B6C3F1 mice; 15 mg/kg i.v. at 24 h and 1 h, no LPS (vehicle -1.3)",-2.4 Δ°C
same,Survival,"Female B6C3F1 mice; 15 mg/kg i.v., no LPS, 24 hours of observation (vehicle 10/10)",9/9
same,Mean rectal temperature at 12 hours (Tr12hr),"Female B6C3F1 mice; 15 mg/kg i.v., no LPS, ± SE (vehicle 36.9 ± 1.4)",35.0 ± 2.9 °C
same,Mean rectal temperature at time zero (Tr0),"Female B6C3F1 mice; 15 mg/kg i.v., no LPS, ± SE (vehicle 38.2 ± 0.1)",37.4 ± 0.6 °C
same,IL-1 (IL-1β) secretion by human macrophages,"human IL-1; ELISA with specific antibody to IL-1β, result in words",blocks IL-1 secretion; also recorded: decreased IL-1β release by human macrophages
same,inhibition at 10 µM,"human IL-1; Macrophage, 24 h, cumulative over four human subjects, vs. untreated macrophages of same individual, read-out: Suppression in the amount of IL-1 secreted",62.1%
same,Tumor necrosis factor secretion,tumor necrosis factor,42 units/ml
same,Phagocytic Index,[1]; Pentamidine 10^-5 M (control 32),32%
same,Phagocytic capacity of alveolar macrophages,[1]; result in words,did not modulate the phagocytic capacity of alveolar macrophages
same,IL-1α mRNA expression,IL-1α mRNA,lack of effect on mRNA expression; also recorded: equal amounts of L-1α mRNA
same,IL-1 release,IL-1,decreased in a concentration dependant manner; also recorded: decreased in a concentration dependent manner
